# In patent US20150374673A1, “Combination Therapy for the Treatment of Nosocomial Pneumonia” (priority 2013, published 2015):
# Like-named read-outs stand apart in the source and are kept apart here.
# Key:
# Assay in all cases: MIC, CLSI broth microdilution in CAMHB with 0-10% pulmonary surfactant (avibactam fixed at 4 μg/mL in combination)
# P. aeruginosa = assay type: cell-based, Pseudomonas aeruginosa; conditions: Pseudomonas aeruginosa, read-out: MIC
# Description: (§1) The bacterial strains used in this testing were part of the microbiological culture collection housed at AstraZeneca R&D Boston (AstraZeneca Research Collection, designated ARC). The panel of bacterial isolates used for this testing was comprised of five CLSI QC reference strains and the remainder were either recent clinical isolates expressing β-lactamases or isolates from the primary bacterial screening panels.
# (§2) MIC values were determined using the CLSI broth microdilution methodology with slight variation. Stock compound mother plates were prepared and used to spot 2 μL aliquots of serial 2-fold drug dilutions to columns 1-11 of 96-well daughter plates using a Perkin-Elmer MiniTrak™ MultiPosition dispenser. […] An inoculum volume of 100 μL (5×10E^5 CFU/mL) in CAMHB containing 0, 1, 2.5, 5, or 10% pulmonary surfactant was added using a multichannel Finnpipette® to each well of the 96-well plate.
# (§3) The minimum inhibitory concentration (MIC) values against each organism/drug combination were determined using broth microdilution methodology according to CLSI guidelines. The recommended reference bacterial strains for each test group and reference compounds were incorporated into each test. For Gram-negatives, the reference bacterial strains were Escherichia coli ATCC 25922, E. coli ATCC 35218, Klebsiella pneumoniae ATCC 700603, and Pseudomonas aeruginosa ATCC 27853. Staphylococcus aureus ATCC 29213 was the reference bacterial strain for the Gram-positives.
# (§4) MIC values for individual isolates were read visually. The MICs for each compound or combination in pulmonary surfactant was compared to the compound or combination tested in CAMHB alone.
# K. pneumoniae = assay type: cell-based; conditions: Klebsiella pneumoniae
# Description: as §1, §2, §3, §4
# E. coli = assay type: cell-based; conditions: Escherichia coli
# Description: as §1, §2, §3, §4
structure (smiles),measurement,setting,value
"CC(C)(O/N=C(\C(=O)N[C@@H]1C(=O)N2C(C(=O)[O-])=C(C[n+]3ccccc3)CS[C@H]12)c1csc(N)n1)C(=O)O [ceftazidime, (6R,7R)-7-[[(2Z)-2-(2-amino-1,3-thiazol-4-yl)-2-(1-hydroxy-2-methyl-1-oxopropan-2-yl)oxyiminoacetyl]amino]-8-oxo-3-(pyridin-1-ium-1-ylmethyl)-5-thia-1-azabicyclo[4.2.0]oct-2-ene-2-carboxylate pentahydrate]",MIC,"P. aeruginosa; ATCC27853, P. aeruginosa ARC3 (CLSI QC strain, ATCC 27853), surfactant 1%",1 µg/mL
same,MIC,"P. aeruginosa; ATCC27853, P. aeruginosa ARC3 (CLSI QC strain, ATCC 27853), surfactant 2.5%",2 µg/mL
same,MIC,"P. aeruginosa; ATCC27853, P. aeruginosa ARC3 (CLSI QC strain, ATCC 27853), surfactant 5%",1 µg/mL
same,MIC,"P. aeruginosa; ATCC27853, P. aeruginosa ARC3 (CLSI QC strain, ATCC 27853), surfactant 10%",2 µg/mL
same,MIC,"P. aeruginosa; ATCC27853, P. aeruginosa ARC3 (CLSI QC strain, ATCC 27853), surfactant 0%",1 µg/mL
same,MIC,"P. aeruginosa; P. aeruginosa ARC2532 (Clinical isolate), surfactant 0%",2 µg/mL
same,MIC,"P. aeruginosa; P. aeruginosa ARC2532 (Clinical isolate), surfactant 1%",2 µg/mL
same,MIC,"P. aeruginosa; P. aeruginosa ARC2532 (Clinical isolate), surfactant 2.5%",2 µg/mL
same,MIC,"P. aeruginosa; P. aeruginosa ARC2532 (Clinical isolate), surfactant 5%",2 µg/mL
same,MIC,"P. aeruginosa; P. aeruginosa ARC2532 (Clinical isolate), surfactant 10%",2 µg/mL
same,MIC,"P. aeruginosa; P. aeruginosa ARC2761 (Clinical isolate), surfactant 1%",2 µg/mL
same,MIC,"P. aeruginosa; P. aeruginosa ARC2761 (Clinical isolate), surfactant 2.5%",1 µg/mL
same,MIC,"P. aeruginosa; P. aeruginosa ARC2761 (Clinical isolate), surfactant 5%",2 µg/mL
same,MIC,"P. aeruginosa; P. aeruginosa ARC2761 (Clinical isolate), surfactant 10%",2 µg/mL
same,MIC,"P. aeruginosa; P. aeruginosa ARC3508 (derepressed AmpC), surfactant 0%",32 µg/mL
same,MIC,"P. aeruginosa; P. aeruginosa ARC3508 (derepressed AmpC), surfactant 1%",32 µg/mL
same,MIC,"P. aeruginosa; P. aeruginosa ARC3508 (derepressed AmpC), surfactant 2.5%",32 µg/mL
same,MIC,"P. aeruginosa; P. aeruginosa ARC3508 (derepressed AmpC), surfactant 5%",32 µg/mL
same,MIC,"P. aeruginosa; P. aeruginosa ARC3508 (derepressed AmpC), surfactant 10%",32 µg/mL
same,MIC,"P. aeruginosa; PAO1, P. aeruginosa ARC545 (PAO1), surfactant 0%",1 µg/mL
same,MIC,"P. aeruginosa; PAO1, P. aeruginosa ARC545 (PAO1), surfactant 1%",1 µg/mL
same,MIC,"P. aeruginosa; PAO1, P. aeruginosa ARC545 (PAO1), surfactant 2.5%",1 µg/mL
same,MIC,"P. aeruginosa; PAO1, P. aeruginosa ARC545 (PAO1), surfactant 5%",1 µg/mL
same,MIC,"P. aeruginosa; PAO1, P. aeruginosa ARC545 (PAO1), surfactant 10%",1 µg/mL
same,MIC,"P. aeruginosa; P. aeruginosa ARC2761 (Clinical isolate), surfactant 0%",2 µg/mL
same,MIC,"K. pneumoniae; ATCC700603, K. pneumoniae ARC561 (ATCC 700603; SHV-18, OXA-2, OKP-6), surfactant 0%",32 µg/mL
same,MIC,"K. pneumoniae; ATCC700603, K. pneumoniae ARC561 (ATCC 700603; SHV-18, OXA-2, OKP-6), surfactant 1%",32 µg/mL
same,MIC,"K. pneumoniae; ATCC700603, K. pneumoniae ARC561 (ATCC 700603; SHV-18, OXA-2, OKP-6), surfactant 2.5%",32 µg/mL
same,MIC,"K. pneumoniae; ATCC700603, K. pneumoniae ARC561 (ATCC 700603; SHV-18, OXA-2, OKP-6), surfactant 5%",32 µg/mL
same,MIC,"K. pneumoniae; ATCC700603, K. pneumoniae ARC561 (ATCC 700603; SHV-18, OXA-2, OKP-6), surfactant 10%",32 µg/mL
same,MIC,"K. pneumoniae; K. pneumoniae ARC1865 (Primary Screening Panel), surfactant 1%",0.25 µg/mL
same,MIC,"K. pneumoniae; K. pneumoniae ARC1865 (Primary Screening Panel), surfactant 2.5%",0.5 µg/mL
same,MIC,"K. pneumoniae; K. pneumoniae ARC1865 (Primary Screening Panel), surfactant 5%",0.5 µg/mL
same,MIC,"K. pneumoniae; K. pneumoniae ARC1865 (Primary Screening Panel), surfactant 10%",0.5 µg/mL
same,MIC,"K. pneumoniae; K. pneumoniae ARC1865 (Primary Screening Panel), surfactant concentration cell empty",0.5 µg/mL
same,MIC,"K. pneumoniae; K. pneumoniae ARC2528 (Clinical isolate), surfactant 0%",1 µg/mL
same,MIC,"K. pneumoniae; K. pneumoniae ARC2528 (Clinical isolate), surfactant 1%",2 µg/mL
same,MIC,"K. pneumoniae; K. pneumoniae ARC2528 (Clinical isolate), surfactant 2.5%",1 µg/mL
same,MIC,"K. pneumoniae; K. pneumoniae ARC2528 (Clinical isolate), surfactant 5%",1 µg/mL
same,MIC,"K. pneumoniae; K. pneumoniae ARC2528 (Clinical isolate), surfactant 10%",1 µg/mL
same,MIC,"K. pneumoniae; K. pneumoniae ARC2929 (KPC-3), surfactant 0%",> 64 µg/mL
same,MIC,"K. pneumoniae; K. pneumoniae ARC2929 (KPC-3), surfactant 1%",> 64 µg/mL
same,MIC,"K. pneumoniae; K. pneumoniae ARC2929 (KPC-3), surfactant 2.5%",> 64 µg/mL
same,MIC,"K. pneumoniae; K. pneumoniae ARC2929 (KPC-3), surfactant 5%",> 64 µg/mL
same,MIC,"K. pneumoniae; K. pneumoniae ARC2929 (KPC-3), surfactant 10%",> 64 µg/mL
same,MIC,"K. pneumoniae; K. pneumoniae ARC2945 (KPC-2, SHV-11, TEM-1, OXA-9), surfactant 0%",64 µg/mL
same,MIC,"K. pneumoniae; K. pneumoniae ARC2945 (KPC-2, SHV-11, TEM-1, OXA-9), surfactant 1%",64 µg/mL
same,MIC,"K. pneumoniae; K. pneumoniae ARC2945 (KPC-2, SHV-11, TEM-1, OXA-9), surfactant 2.5%",64 µg/mL
same,MIC,"K. pneumoniae; K. pneumoniae ARC2945 (KPC-2, SHV-11, TEM-1, OXA-9), surfactant 5%",64 µg/mL
same,MIC,"K. pneumoniae; K. pneumoniae ARC2945 (KPC-2, SHV-11, TEM-1, OXA-9), surfactant 10%",64 µg/mL
same,MIC,"K. pneumoniae; K. pneumoniae ARC3713 (CTX-M-15, OXA-1/30, SHV-5, TEM-1), surfactant 0%",> 64 µg/mL
same,MIC,"K. pneumoniae; K. pneumoniae ARC3713 (CTX-M-15, OXA-1/30, SHV-5, TEM-1), surfactant 1%",> 64 µg/mL
same,MIC,"K. pneumoniae; K. pneumoniae ARC3713 (CTX-M-15, OXA-1/30, SHV-5, TEM-1), surfactant 2.5%",> 64 µg/mL
same,MIC,"K. pneumoniae; K. pneumoniae ARC3713 (CTX-M-15, OXA-1/30, SHV-5, TEM-1), surfactant 5%",> 64 µg/mL
same,MIC,"K. pneumoniae; K. pneumoniae ARC3713 (CTX-M-15, OXA-1/30, SHV-5, TEM-1), surfactant 10%",> 64 µg/mL
same,MIC,"E. coli; ATCC25922, E. coli ARC4 (CLSI QC strain, ATCC 25922), surfactant 0%",0.25 µg/mL
same,MIC,"E. coli; ATCC25922, E. coli ARC4 (CLSI QC strain, ATCC 25922), surfactant 1%",0.25 µg/mL
same,MIC,"E. coli; ATCC25922, E. coli ARC4 (CLSI QC strain, ATCC 25922), surfactant 2.5%",0.25 µg/mL
same,MIC,"E. coli; ATCC25922, E. coli ARC4 (CLSI QC strain, ATCC 25922), surfactant 5%",0.25 µg/mL
same,MIC,"E. coli; ATCC25922, E. coli ARC4 (CLSI QC strain, ATCC 25922), surfactant 10%",0.25 µg/mL
same,MIC,"E. coli; ATCC35218, E. coli ARC016 (ATCC 35218, TEM-1), surfactant 0%",0.12 µg/mL
same,MIC,"E. coli; ATCC35218, E. coli ARC016 (ATCC 35218, TEM-1), surfactant 1%",0.12 µg/mL
same,MIC,"E. coli; ATCC35218, E. coli ARC016 (ATCC 35218, TEM-1), surfactant 2.5%",0.12 µg/mL
same,MIC,"E. coli; ATCC35218, E. coli ARC016 (ATCC 35218, TEM-1), surfactant 5%",0.12 µg/mL
same,MIC,"E. coli; ATCC35218, E. coli ARC016 (ATCC 35218, TEM-1), surfactant 10%",0.12 µg/mL
same,MIC,"E. coli; E. coli ARC523 (W3110), surfactant 0%",0.5 µg/mL
same,MIC,"E. coli; E. coli ARC523 (W3110), surfactant 1%",0.5 µg/mL
same,MIC,"E. coli; E. coli ARC523 (W3110), surfactant 2.5%",0.25 µg/mL
same,MIC,"E. coli; E. coli ARC523 (W3110), surfactant 5%",0.5 µg/mL
same,MIC,"E. coli; E. coli ARC523 (W3110), surfactant 10%",0.5 µg/mL
same,MIC,"E. coli; E. coli ARC3666 (CTX-M-15, OXA-1/30, SHV-31, TEM-1), surfactant 0%",32 µg/mL
same,MIC,"E. coli; E. coli ARC3666 (CTX-M-15, OXA-1/30, SHV-31, TEM-1), surfactant 1%",32 µg/mL
same,MIC,"E. coli; E. coli ARC3666 (CTX-M-15, OXA-1/30, SHV-31, TEM-1), surfactant 2.5%",32 µg/mL
same,MIC,"E. coli; E. coli ARC3666 (CTX-M-15, OXA-1/30, SHV-31, TEM-1), surfactant 5%",32 µg/mL
same,MIC,"E. coli; E. coli ARC3666 (CTX-M-15, OXA-1/30, SHV-31, TEM-1), surfactant 10%",32 µg/mL
same,MIC,"E. coli; E. coli ARC3690 (CTX-M-15, SHV-12), surfactant 0%",64 µg/mL
same,MIC,"E. coli; E. coli ARC3690 (CTX-M-15, SHV-12), surfactant 1%",64 µg/mL
same,MIC,"E. coli; E. coli ARC3690 (CTX-M-15, SHV-12), surfactant 2.5%",64 µg/mL
same,MIC,"E. coli; E. coli ARC3690 (CTX-M-15, SHV-12), surfactant 5%",64 µg/mL
same,MIC,"E. coli; E. coli ARC3690 (CTX-M-15, SHV-12), surfactant 10%",64 µg/mL
